Data as given in PMC2826549 (Thrombosis research, 2009).

Experiments:
Format in all cases: cell-based
P2X1 = target: T1, P2X1 (Homo sapiens, UniProt P51575); assay: FLUO-4 flow cytometry of extracellular Ca2+ entry in human platelets; conditions: read-out: Ap4A Agonist Activity
T1 sequence (P51575 1-399): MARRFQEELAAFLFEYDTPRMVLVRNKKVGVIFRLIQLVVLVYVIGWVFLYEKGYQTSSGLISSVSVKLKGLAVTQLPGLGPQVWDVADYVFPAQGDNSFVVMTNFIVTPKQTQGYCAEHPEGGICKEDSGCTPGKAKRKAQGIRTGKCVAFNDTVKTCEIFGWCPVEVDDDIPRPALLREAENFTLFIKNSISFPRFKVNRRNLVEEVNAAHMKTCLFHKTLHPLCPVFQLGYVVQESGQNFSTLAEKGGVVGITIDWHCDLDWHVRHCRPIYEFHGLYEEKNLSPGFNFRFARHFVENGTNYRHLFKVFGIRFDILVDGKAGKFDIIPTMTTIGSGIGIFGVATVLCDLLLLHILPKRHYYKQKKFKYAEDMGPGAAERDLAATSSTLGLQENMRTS

P2Y1 = P2Y1 (Homo sapiens, UniProt P47900); assay: inhibition of […] ADP-induced cytosolic Ca2+ increase in human platelets
Sequence of P2Y1 (P47900 whole entry): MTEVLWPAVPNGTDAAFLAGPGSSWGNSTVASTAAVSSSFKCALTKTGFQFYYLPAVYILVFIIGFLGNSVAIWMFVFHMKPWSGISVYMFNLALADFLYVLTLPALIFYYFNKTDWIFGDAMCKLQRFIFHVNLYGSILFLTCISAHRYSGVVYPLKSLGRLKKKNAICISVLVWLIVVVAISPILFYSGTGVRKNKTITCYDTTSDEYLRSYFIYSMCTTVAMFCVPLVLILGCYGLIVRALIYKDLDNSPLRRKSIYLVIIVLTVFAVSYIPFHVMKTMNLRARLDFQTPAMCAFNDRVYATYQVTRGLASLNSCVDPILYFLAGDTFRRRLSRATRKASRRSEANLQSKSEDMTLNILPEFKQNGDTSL

P2Y12 = P2Y12 (Homo sapiens, UniProt Q9H244); assay: VASP phosphorylation flow cytometry in human whole blood platelets
Sequence of P2Y12 (Q9H244 whole entry): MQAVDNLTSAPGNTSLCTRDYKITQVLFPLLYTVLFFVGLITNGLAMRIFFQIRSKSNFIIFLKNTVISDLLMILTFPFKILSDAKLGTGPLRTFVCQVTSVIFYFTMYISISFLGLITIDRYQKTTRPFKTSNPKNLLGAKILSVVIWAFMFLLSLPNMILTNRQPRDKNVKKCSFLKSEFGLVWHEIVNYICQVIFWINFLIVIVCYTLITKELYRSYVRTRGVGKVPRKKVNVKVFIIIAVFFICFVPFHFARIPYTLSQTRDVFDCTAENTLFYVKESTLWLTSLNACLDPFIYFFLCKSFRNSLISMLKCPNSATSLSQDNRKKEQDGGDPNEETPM

- EC50 (P2X1): ~0.3 µM
- IC50 (P2Y1): 40.8 ± 12.3 µM
- IC50 (P2Y12): > 250 µM
Compound: Nc1ncnc2c1ncn2[C@@H]1O[C@H](COP(=O)(O)OP(=O)(O)OP(=O)(O)OP(=O)(O)OC[C@H]2O[C@@H](n3cnc4c(N)ncnc43)[C@H](O)[C@@H]2O)[C@@H](O)[C@H]1O [Ap4A, Diadenosine 5',5"'-P^1,P^4-tetraphosphate]
